In article PMC8585718 (European journal of medicinal chemistry, 2021):
pIC50: −log10 of the molar value. Structures can show the parent of a compound that is named as a salt.

Tests used:
[1] = target: ZVpro (Zika virus NS2B-NS3 protease) (Zika virus, UniProt A0A024B7W1); assay: Fluorescence-based biochemical assay of ZVpro inhibition; details: for ZVpro IC50: enzyme 1 nM, substrate 10 μM, HEPES pH 7.3
[2] = target: DV2pro (NS2B-NS3 protease from DENV serotype-2) (Dengue virus type 2, UniProt P29990); assay: Fluorescence-based biochemical assay of DV2pro inhibition; details: IC50 vs substrate concentration 0.5 to 50 μM
ZIKV-FLR in U87 cells = assay: Anti-ZIKV activity in U87 cells; format: cell-based, Zika virus

With `COc1cc(-c2ccc3[nH]cc(C(=O)NC4CCNCC4)c3c2)cc(OC)c1OC` [Compound 15, N-(piperidin-4-yl)-5-(3,4,5-trimethoxyphenyl)-1H-indole-3-carboxamide Hydrochloride] the pIC50 [1] was less than 4.30.

For `O=C(NCC1CCNCC1)c1c[nH]c2ccc(-c3ccc(F)cc3)cc12` [Compound 16, 5-(4-fluorophenyl)-N-(piperidin-4-ylmethyl)-1H-indole-3-carboxamide Hydrochloride], the pIC50 [1] was less than 4.30.

`O=C(NCC1CCNCC1)c1c[nH]c2ccc(-c3ccc(F)cc3F)cc12` [Compound 17, 5-(2,4-difluorophenyl)-N-(piperidin-4-ylmethyl)-1H-indole-3-carboxamide Hydrochloride] showed a pIC50 [1] of less than 4.30.

In the case of `CC(C)(C)c1ccc(-c2ccc3c(ccn3Cc3ccc(-c4ccoc4)cc3)c2)cc1` [Compound 4, 5-(4-(Tert-butyl)phenyl)-1-(4-(furan-3-yl)benzyl)-1H-indole Hydrochloride], the pIC50 [1] was less than 4.30 and the “ZVpro IC50” value [1] was “inactive”.

In the case of `CC(C)(C)c1ccc(-c2ccc3sc(C(=O)NC4CCNCC4)cc3c2)cc1` [Compound 11, 5-(4-(Tert-butyl)phenyl)-N-(piperidin-4-yl)benzo[b]thiophene-2-carboxamide Hydrochloride], the pIC50 [1] was 5.49.

`O=Cc1cccc(-c2ccc3[nH]cc(C(=O)NCC4CCNCC4)c3c2)c1` [Compound 18, 5-(3-formylphenyl)-N-(piperidin-4-ylmethyl)-1H-indole-3-carboxamide Hydrochloride] gave a pIC50 [1] of less than 4.30.

In the case of `O=C(NCC1CCNCC1)c1cc2ccc(-c3ccoc3)cc2[nH]1` [Compound 66, 6-(Furan-3-yl)-N-(piperidin-4-ylmethyl)-1H-indole-2-carboxamide Hydrochloride], the “mode of inhibition against DV2pro” value [2] was “non-competitive”, the “mode of inhibition against ZVpro” value ([1]; IC50 vs substrate concentration 0.5 to 10 μM) was “non-competitive” and the “log reduction of ZIKV replication in U87 cells” value (ZIKV-FLR in U87 cells; at 1 μM) was 0.5 log. For the same compound, the “log reduction of ZIKV replication in U87 cells” value (ZIKV-FLR in U87 cells; at 10 μM) was 2 log.

For `CC(C)(C)c1ccc(-c2ccc3c(C(=O)NCC4CCNCC4)c[nH]c3n2)cc1` [Compound 9, 6-(4-(tert-butyl)phenyl)-N-(piperidin-4-ylmethyl)-1H-pyrrolo[2,3-b]pyridine-3-carboxamide Hydrochloride], the pIC50 [1] was 5.04.

With `O=C(NCC1CCNCC1)c1cc2cc(-c3cccnc3)ccc2[nH]1` [Compound 33, N-(Piperidin-4-ylmethyl)-5-(pyridin-3-yl)-1H-indole-2-carboxamide Hydrochloride] the pIC50 [1] was less than 4.30.

In the case of `CC(C)(C)c1ccc(-c2ccc3cc(C(=O)NCC4CCNCC4)[nH]c3c2)cc1` [Compound 8, 6-(4-(Tert-butyl)phenyl)-N-(piperidin-4-ylmethyl)-1H-indole-2-carboxamide Hydrochloride], the pIC50 [1] was 5.89.

`COc1cc(-c2ccc3c(C(=O)NCC4CCNCC4)c[nH]c3c2)cc(OC)c1OC` [Compound 19, N-(piperidin-4-ylmethyl)-6-(3,4,5-trimethoxyphenyl)-1H-indole-3-carboxamide Hydrochloride] was tested, and the pIC50 [1] was less than 4.30.

Work on `CC(C)(C)c1ccc(-c2ccc3cc(C(=O)NC4CCNCC4)sc3c2)cc1` [Compound 12, 6-(4-(Tert-butyl)phenyl)-N-(piperidin-4-yl)benzo[b]thiophene-2-carboxamide Hydrochloride] yielded a pIC50 [1] of 5.68.

`N#Cc1ccc(-c2ccc3c(C(=O)NC4CCNCC4)coc3c2)cc1` [Compound 69, 6-(4-Cyanophenyl)-N-(piperidin-4-yl)benzofuran-3-carboxamide Hydrochloride] gave a pIC50 [1] of less than 4.30.

With `CC(C)(C)c1ccc(-c2ccc3c(C(=O)NC4CCNCC4)coc3c2)cc1` [Compound 13, 6-(4-(Tert-butyl)phenyl)-N-(piperidin-4-yl)benzofuran-3-carboxamide Hydrochloride] the pIC50 [1] was 5.29.

Compound `O=C(NCC1CCNCC1)c1c[nH]c2cc(-c3ccc(F)cc3)ccc12` [Compound 20, 6-(4-fluorophenyl)-N-(piperidin-4-ylmethyl)-1H-indole-3-carboxamide Hydrochloride] has a pIC50 [1] of less than 4.30.

`O=C(NCC1CCNCC1)c1cc2ccc(-c3ccc(OC(F)(F)F)cc3)cc2[nH]1` [Compound 51, N-(Piperidin-4-ylmethyl)-6-(4-(trifluoromethoxy)phenyl)-1H-indole-2-carboxamide Hydrochloride] showed a pIC50 [1] of 5.49.

`O=C(NCC1CCNCC1)c1c[nH]c2cc(-c3ccccc3F)ccc12` [Compound 21, 6-(2-fluorophenyl)-N-(piperidin-4-ylmethyl)-1H-indole-3-carboxamide Hydrochloride] showed a pIC50 [1] of less than 4.30.

For `NCc1ccc(-c2ccc3c(C(=O)NCC4CCNCC4)c[nH]c3c2)cc1` [Compound 23, 6-(4-(aminomethyl)phenyl)-N-(piperidin-4-ylmethyl)-1H-indole-3-carboxamide Hydrochloride], the pIC50 [1] was less than 4.30.

`CC(C)(C)c1ccc(-c2ccc3[nH]c(C(=O)NCC4CCNCC4)nc3c2)cc1` [Compound 10, 5-(4-(tert-butyl)phenyl)-N-(piperidin-4-ylmethyl)-1H-benzo[d]imidazole-2 carboxamide Hydrochloride] was tested, and the pIC50 [1] was 5.51.

`CC(C)(C)c1ccc(-c2ccc3c(ccn3Cc3ccc(-c4ccncc4)cc3)c2)cc1` [Compound 5, 5-(4-(Tert-butyl)phenyl)-1-(4-(pyridin-4-yl)benzyl)-1H-indole Hydrochloride] was tested, and the pIC50 [1] was less than 4.30 and the “ZVpro IC50” value [1] was “inactive”.

`N#Cc1ccc(-c2ccc3[nH]cc(C(=O)NC4CCNCC4)c3c2)cc1` [Compound 14, 5-(4-cyanophenyl)-N-(piperidin-4-yl)-1H-indole-3-carboxamide Hydrochloride] was tested, and the pIC50 [1] was less than 4.30.
